Measured values taken from PMC2749490 (Bioorganic & medicinal chemistry, 2009).
Where two headings read alike, the source gives them in different places. *1 amine or outer side, *2 acyl side, *3 side chain or, on linkers, in order; H or OH if unused. Where a SMILES comes first, the peptide text is derived from it. Bridges are numbered along the chain shown (N, C = ends). Where no end group is shown, it is not given here. [ ]: non-standard residue; d: D form. The star is where a group is joined. Staurosporine = CO[C@@H]1[C@H](N(C)*)C[C@H]2O[C@]1(C)n1c3ccccc3c3c4c(c5c6ccccc6n2c5c31)C(=O)NC4; Suc = O=C(CCC(=O)[*:2])[*:1]; Dap = NC[C@H](N)C(=O)O; βAla = NCCC(=O)O

Assays:
[1] = target: T1, PKA (Homo sapiens, UniProt P17612); format: biochemical; conditions: versus Kemptide
[2] = target: T2, cAMP-dependent protein kinase (PKA) (Homo sapiens, UniProt P17612); conditions: earlier proof-of-principle studies; cited from earlier work
[3] = target: T2, cAMP-dependent protein kinase (PKA); test: PKA inhibitor IC50 determination; format: biochemical
[4] = target: T1, PKA; test: PKA kinase assays in the presence of 7.5 mM DTT; format: biochemical

cyclo(CTFRVFGC)G (CTFRVFGCG; disulfide 1-8 (inferred)) [1b]
mode of inhibition with respect to peptide substrate (best-fit model) [1]: noncompetitive

cyclo(CTFRVFGC)G [1b]
IC50 [2]: 57 µM

CC(C)[C@@H]1NC(=O)[C@H](CCCNC(=N)N)NC(=O)[C@H](Cc2ccccc2)NC(=O)[C@H]([C@@H](C)O)NC(=O)[C@@H](NC(=O)CCNC(=O)CCNC(=O)CCNC(=O)CCNC(=O)CCNC(=O)CCNC(=O)CCNC(=O)[C@H]2O[C@@H](n3cnc4c(N)ncnc43)[C@H](O)[C@@H]2O)CSSC[C@@H](C(=O)NCC(N)=O)NC(=O)CNC(=O)[C@H](Cc2ccccc2)NC1=O [compound 6] (HELM PEPTIDE1{[Nc1ncnc2c1ncn2[C@@H]1O[C@H](C(=O)[*:2])[C@@H](O)[C@H]1O].[bAla].[bAla].[bAla].[bAla].[bAla].[bAla].[bAla].C.T.F.R.V.F.G.C.G.[am]}$PEPTIDE1,PEPTIDE1,9:R3-16:R3$$$V2.0)
improvement from the adenosine derivative 6a ([3]; ratio of PKA IC50 values): > 300 fold

CO[C@@H]1[C@H](N(C)C(=O)CCC(=O)NCCC(=O)NCCC(=O)NCCC(=O)NCCC(=O)NCCC(=O)NCCC(=O)NCCC(=O)N[C@H]2CC(=O)NC[C@@H](C(=O)NCC(N)=O)NC(=O)CNC(=O)[C@H](Cc3ccccc3)NC(=O)[C@H](C(C)C)NC(=O)[C@H](CCCNC(=N)N)NC(=O)[C@H](Cc3ccccc3)NC(=O)[C@H]([C@@H](C)O)NC2=O)C[C@H]2O[C@]1(C)n1c3ccccc3c3c4c(c5c6ccccc6n2c5c31)C(=O)NC4 [compound 7] ({Staurosporine-Suc-βAla-βAla-βAla-βAla-βAla-βAla-βAla}-DTFRVFG[Dap]G-NH2; lactam 1-8)
sensitivity to reducing conditions [4]: insensitive to reducing conditions

Nc1ncnc2c1ncn2[C@@H]1O[C@H](C(=O)O)[C@@H](O)[C@H]1O [6a]
IC50 [3]: > 1000 µM
